From patent US8440684B2, “Polycyclic pyrrolidine-2,5-dione derivatives as -formyl peptide receptor like-1 (FPRL-1) receptor modulators” (Allergan, Inc., priority 2011, dated 2013)

Target: T1, FPRL1 (Homo sapiens, UniProt P25090)
T1 construct: expressed in transfected cells
T1 sequence (P25090 1-351): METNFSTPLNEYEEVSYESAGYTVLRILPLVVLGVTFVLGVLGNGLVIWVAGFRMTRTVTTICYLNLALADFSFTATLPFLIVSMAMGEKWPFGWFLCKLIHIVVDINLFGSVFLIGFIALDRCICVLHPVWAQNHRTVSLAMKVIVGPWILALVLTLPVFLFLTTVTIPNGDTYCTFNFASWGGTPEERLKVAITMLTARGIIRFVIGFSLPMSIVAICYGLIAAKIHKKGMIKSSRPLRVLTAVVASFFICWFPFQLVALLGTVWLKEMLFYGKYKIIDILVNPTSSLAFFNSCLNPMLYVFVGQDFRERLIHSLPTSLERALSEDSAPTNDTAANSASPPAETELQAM
Test: compound-induced calcium activity on FLIPR Tetra in CHO-Ga16 cells stably expressing FPRL1
Assay type: cell-based
Settings: for FPRL1 (rel. eff.): relative efficacy; for EC50: tested 0.61 to 10,000 nM
Protocol: CHO-Ga16 cells stably expressing FPRL1 were cultured in (F12, 10% FBS, 1% PSA, 400 μg/ml geneticin and 50 μg/ml hygromycin) and HEK-Gqi5 cells stable expressing FPR1 were cultured in (DMEM high glucose, 10% FBS, 1% PSA, 400 μg/ml geneticin and 50 μg/ml hygromycin). In general, the day before the experiment, 18,000 cells/well were plated in a 384-well clear bottom poly-d-lysine coated plate. The following day the screening compound-induced calcium activity was assayed on the FLIPR^Tetra. The drug plates were prepared in 384-well microplates using the EP3 and the MultiPROBE robotic liquid handling systems. Compounds were tested at concentrations ranging from 0.61 to 10,000 nM. Results are expressed as EC50 (nM) and efficacy values.

Row | Structure (SMILES) | FPRL1 (rel. eff.) | EC50
1 | CS(=O)(=O)c1ccc(NC(=O)CN2C(=O)C3C(C2=O)C2CCC3C23CC3)cc1 (stereo not shown) [Compound 4, 2-(1,3-dioxooctahydro-2H-spiro[2-aza-4,7-methanoisoindole-8,1′-cyclopropan]-2-yl)-N-[4-(methylsulfonyl)phenyl]acetamide] | (0.72) | 3460 nM
2 | CC(=O)c1ccc(NC(=O)CN2C(=O)C3C(C2=O)C2CCC3C23CC3)cc1 (stereo not shown) [Compound 7, N-(4-acetylphenyl)-2-(1,3-dioxooctahydro-2H-spiro[2-aza-4,7-methanoisoindole-8,1′-cyclopropan]-2-yl)acetamide] | (0.63) | 7830 nM
3 | O=C(CN1C(=O)C2C(C1=O)C1CCC2C12CC2)Nc1ccc(Cl)nc1 (stereo not shown) [Compound 8, N-(6-chloropyridin-3-yl)-2-(1,3-dioxooctahydro-2H-spiro[2-aza-4,7-methanoisoindole-8,1′-cyclopropan]-2-yl)acetamide] | (0.86) | 2510 nM
4 | CC(C(=O)Nc1ccc(Br)cc1)N1C(=O)C2C(C1=O)C1CCC2C12CC2 (stereo not shown) [Compound 11, N-(4-bromophenyl)-2-(1,3-dioxooctahydro-2H-spiro[2-aza-4,7-methanoisoindole-8,1′-cyclopropan]-2-yl)propanamide] | (0.93) | > 5000 nM
5 | O=C(CN1C(=O)C2C(C1=O)C1C=CC2C12CC2)Nc1ccc(Br)cc1 (stereo not shown) [Compound 12, N-(4-bromophenyl)-2-(1,3-dioxo-1,3,3a,4,7,7a-hexahydro-2H-spiro[2-aza-4,7-methanoisoindole-8,1′-cyclopropan]-2-yl)acetamide] | (0.91) | 812 nM
6 | O=C(CN1C(=O)C2CC=CCC2C1=O)Nc1ccc(Br)cc1 (stereo not shown) [N-(4-bromophenyl)-1,3,3a,4,7,7a-hexahydro-1,3-dioxo-2H-isoindole-2-acetamide, reference compound] | (0.98) | 395 nM
7 | O=C(CN1C(=O)C2C3C=CC(C3)C2C1=O)Nc1ccc(Br)cc1 (stereo not shown) [N-(4-bromophenyl)-1,3,3a,4,7,7a-hexahydro-1,3-dioxo-4,7-methano-2H-isoindole-2-acetamide, reference compound] | (0.90) | 575 nM

The remaining lines, values ahead:

Row | FPRL1 (rel. eff.) | EC50 | Structure (SMILES)
8 | (0.9) | 118 nM | O=C(CN1C(=O)C2C(C1=O)C1CCC2C12CC2)Nc1ccc(Br)cc1 (stereo not shown) [Compound 1, N-(4-Bromophenyl)-2-(1,3-dioxooctahydro-2H-spiro[2-aza-4,7-methanoisoindole-8,1′-cyclopropan]-2-yl)acetamide]
9 | (1.0) | 336 nM | CSc1ccc(NC(=O)CN2C(=O)C3C(C2=O)C2CCC3C23CC3)cc1 (stereo not shown) [Compound 2, 2-(1,3-dioxooctahydro-2H-spiro[2-aza-4,7-methanoisoindole-8,1′-cyclopropan]-2-yl)-N-[4-(methylthio)phenyl]acetamide]
10 | (1.0) | 2050 nM | O=C(CN1C(=O)C2C(C1=O)C1CCC2C12CC2)Nc1ccc(Cl)cc1 (stereo not shown) [Compound 3, N-(4-chlorophenyl)-2-(1,3-dioxooctahydro-2H-spiro[2-aza-4,7-methanoisoindole-8,1′-cyclopropan]-2-yl)acetamide]
11 | (0.86) | 2650 nM | O=C(CN1C(=O)C2C(C1=O)C1CCC2C12CC2)Nc1ccc(I)cc1 (stereo not shown) [Compound 5, 2-(1,3-dioxooctahydro-2H-spiro[2-aza-4,7-methanoisoindole-8,1′-cyclopropan]-2-yl)-N-(4-iodophenyl)acetamide]
12 | (0.91) | 1150 nM | CCc1ccc(NC(=O)CN2C(=O)C3C(C2=O)C2CCC3C23CC3)cc1 (stereo not shown) [Compound 6, 2-(1,3-dioxooctahydro-2H-spiro[2-aza-4,7-methanoisoindole-8,1′-cyclopropan]-2-yl)-N-(4-ethylphenyl)acetamide]
13 | (0.9) | 2320 nM | O=C(CN1C(=O)C2C(C1=O)C1CCC2C12CC2)Nc1ccc(F)cc1 (stereo not shown) [Compound 9, 2-(1,3-dioxooctahydro-2H-spiro[2-aza-4,7-methanoisoindole-8,1′-cyclopropan]-2-yl)-N-(4-fluorophenyl)acetamide]
14 | (1.0) | 267 nM | COc1ccc(NC(=O)CN2C(=O)C3C(C2=O)C2CCC3C23CC3)cc1 (stereo not shown) [Compound 10, 2-(1,3-dioxooctahydro-2H-spiro[2-aza-4,7-methanoisoindole-8,1′-cyclopropan]-2-yl)-N-(4-methoxyphenyl)acetamide]
